Laboratory results published in the CheMixHub viscosity set.

Experiment: xn = mol fraction of the nth substance listed

CCCCCC + CCCCO
viscosity [mPa·s]
Conditions | 298.15 K | 313.15 K | 318.15 K
101 kPa, x2 = 0.08 | 0.33 | – | 0.266
101 kPa, x2 = 0.1284 | 0.345 | – | 0.284
101 kPa, x2 = 0.1441 | 0.35 | – | 0.29
101 kPa, x2 = 0.2 | 0.385 | – | 0.311
101 kPa, x2 = 0.28 | 0.415 | – | 0.33
101.3 kPa, x2 = 0.0999 | 0.3222 | 0.2741 | –
101.3 kPa, x2 = 0.1997 | 0.3628 | 0.306 | –
101.3 kPa, x2 = 0.299 | 0.4227 | 0.3503 | –
101.3 kPa, x2 = 0.4007 | 0.5201 | 0.4169 | –
101.3 kPa, x2 = 0.499 | 0.642 | 0.5063 | –
101.3 kPa, x2 = 0.5988 | 0.8264 | 0.6311 | –
101.3 kPa, x2 = 0.6996 | 1.082 | 0.8166 | –
101.3 kPa, x2 = 0.8 | 1.421 | 1.041 | –
101.3 kPa, x2 = 0.8994 | 1.888 | 1.33 | –
101.33 kPa, x1 = 0.0971 | 1.848 | – | –
101.33 kPa, x1 = 0.1707 | 1.496 | – | –
101.33 kPa, x1 = 0.2625 | 1.169 | – | –
101.33 kPa, x1 = 0.3521 | 0.909 | – | –
101.33 kPa, x1 = 0.4142 | 0.778 | – | –
101.33 kPa, x1 = 0.562 | 0.539 | – | –
101.33 kPa, x1 = 0.6624 | 0.44 | – | –
101.33 kPa, x1 = 0.8147 | 0.348 | – | –
101.33 kPa, x1 = 0.9267 | 0.306 | – | –

CC(C)CO + CC#N
viscosity [mPa·s]
Conditions | x2 = 0.1676 | x2 = 0.3118 | x2 = 0.4373 | x2 = 0.5476 | x2 = 0.6442 | x2 = 0.7304 | x2 = 0.8083 | x2 = 0.8784 | x2 = 0.942 | x2 = 0.9432
298.15 K, 101.3 kPa | 1.788 | 1.186 | 0.87 | 0.692 | 0.567 | 0.483 | 0.434 | 0.395 | 0.371 | –
303.15 K, 101 kPa | – | – | – | – | – | – | – | – | – | 0.5569
303.15 K, 101.3 kPa | 1.582 | 1.064 | 0.793 | 0.634 | 0.532 | 0.455 | 0.411 | 0.376 | 0.362 | –
308.15 K, 101.3 kPa | 1.389 | 0.962 | 0.725 | 0.586 | 0.494 | 0.428 | 0.39 | 0.358 | 0.344 | –
313.15 K, 101.3 kPa | 1.232 | 0.869 | 0.664 | 0.548 | 0.461 | 0.405 | 0.373 | 0.342 | 0.324 | –

C=CC(=O)OCCCC + CCCCCCCCO
viscosity [mPa·s], 101.3 kPa
Conditions | x1 = 0.0586 | x1 = 0.1668 | x1 = 0.2181 | x1 = 0.3218 | x1 = 0.4238 | x1 = 0.6226 | x1 = 0.7052 | x1 = 0.8125 | x1 = 0.9095 | x1 = 0.9529
298.15 K | 5.944 | 4.17 | 3.544 | 2.729 | 2.165 | 1.403 | 1.232 | 0.998 | 0.9 | 0.85
308.15 K | 4.393 | 3.177 | 2.752 | 2.096 | 1.689 | 1.146 | 0.992 | 0.841 | 0.753 | 0.715

CC(C)CO + CCO
101 kPa, x2 = 0.5
Conditions | viscosity [mPa·s]
308.15 K | 1.598
313.15 K | 1.479
318.15 K | 1.308

CCCCCC + CCCCCCC
Conditions | viscosity [mPa·s]
298 K, 101.33 kPa, x2 = 0.1005 | 0.3132
298 K, 101.33 kPa, x2 = 0.1957 | 0.3202
298 K, 101.33 kPa, x2 = 0.3837 | 0.3365
298 K, 101.33 kPa, x2 = 0.508 | 0.3471
298 K, 101.33 kPa, x2 = 0.6023 | 0.3554
298 K, 101.33 kPa, x2 = 0.7154 | 0.3649
298 K, 101.33 kPa, x2 = 0.8009 | 0.3727
298 K, 101.33 kPa, x2 = 0.8944 | 0.3801
298.15 K, 101 kPa, x2 = 0.2069 | 0.3145
298.15 K, 101 kPa, x2 = 0.2091 | 0.315
298.15 K, 101 kPa, x2 = 0.2351 | 0.316
298.15 K, 101 kPa, x2 = 0.2355 | 0.316
298.15 K, 101 kPa, x2 = 0.2614 | 0.317
298.15 K, 101 kPa, x2 = 0.2637 | 0.317
298.15 K, 101 kPa, x2 = 0.2921 | 0.319
298.15 K, 101 kPa, x2 = 0.2929 | 0.319
298.15 K, 101 kPa, x2 = 0.3129 | 0.32
298.15 K, 101 kPa, x2 = 0.3245 | 0.3205
298.15 K, 101 kPa, x2 = 0.3582 | 0.323
298.15 K, 101 kPa, x2 = 0.3665 | 0.3245
298.15 K, 101 kPa, x2 = 0.3904 | 0.325
298.15 K, 101 kPa, x2 = 0.3907 | 0.325
298.15 K, 101 kPa, x2 = 0.4267 | 0.3275
298.15 K, 101 kPa, x2 = 0.4279 | 0.328
298.15 K, 101 kPa, x2 = 0.4662 | 0.331
298.15 K, 101 kPa, x2 = 0.4687 | 0.331
298.15 K, 101 kPa, x2 = 0.5072 | 0.3345
298.15 K, 101 kPa, x2 = 0.5084 | 0.3345
298.15 K, 101 kPa, x2 = 0.5516 | 0.339
298.15 K, 101 kPa, x2 = 0.5526 | 0.338
298.15 K, 101 kPa, x2 = 0.5986 | 0.344
298.15 K, 101 kPa, x2 = 0.5994 | 0.344
298.15 K, 101 kPa, x2 = 0.6496 | 0.35
298.15 K, 101 kPa, x2 = 0.6507 | 0.35
298.15 K, 101 kPa, x2 = 0.6856 | 0.3545
298.15 K, 101 kPa, x2 = 0.6881 | 0.355
298.15 K, 101 kPa, x2 = 0.7266 | 0.3595
298.15 K, 101 kPa, x2 = 0.728 | 0.36
298.15 K, 101.33 kPa, x1 = 0.1059 | 0.3792
298.15 K, 101.33 kPa, x1 = 0.2067 | 0.3658
298.15 K, 101.33 kPa, x1 = 0.302 | 0.358
298.15 K, 101.33 kPa, x1 = 0.406 | 0.3485
298.15 K, 101.33 kPa, x1 = 0.5051 | 0.3409
298.15 K, 101.33 kPa, x1 = 0.6064 | 0.3305
298.15 K, 101.33 kPa, x1 = 0.704 | 0.3227
298.15 K, 101.33 kPa, x1 = 0.8008 | 0.3123
298.15 K, 101.33 kPa, x1 = 0.8993 | 0.3075

ClCC(Cl)Cl + COc1ccccc1N
viscosity [mPa·s], 100 kPa
Conditions | x2 = 0.0884 | x2 = 0.1905 | x2 = 0.2923 | x2 = 0.4076 | x2 = 0.5076 | x2 = 0.5945 | x2 = 0.7016 | x2 = 0.8104 | x2 = 0.9023
303.15 K | 1.376 | 1.786 | 2.192 | 2.647 | 3.038 | 3.376 | 3.789 | 4.204 | 4.554
308.15 K | 1.291 | 1.676 | 2.055 | 2.478 | 2.841 | 3.154 | 3.535 | 3.918 | 4.236
313.15 K | 1.204 | 1.566 | 1.916 | 2.307 | 2.641 | 2.929 | 3.279 | 3.629 | 3.918

CC(C)(C)c1ccccc1 + c1ccccc1
303.15 K, 101.3 kPa
Conditions | viscosity [mPa·s]
x2 = 0.0424 | 0.9763
x2 = 0.1376 | 0.9194
x2 = 0.2605 | 0.8507
x2 = 0.4018 | 0.7791
x2 = 0.5266 | 0.725
x2 = 0.682 | 0.6637
x2 = 0.7952 | 0.6265
x2 = 0.865 | 0.6036
x2 = 0.9376 | 0.5792

CC1=CCC2CC1C2(C)C (configuration not stated) + COC(C)(C)C
298.15 K, 101.33 kPa
Conditions | viscosity [mPa·s]
x2 = 0.0598 | 1.196
x2 = 0.128 | 1.091
x2 = 0.2151 | 0.9713
x2 = 0.357 | 0.8048
x2 = 0.4839 | 0.6762
x2 = 0.5691 | 0.603
x2 = 0.6514 | 0.5379
x2 = 0.7236 | 0.4866
x2 = 0.8254 | 0.4221
x2 = 0.9034 | 0.379
x2 = 0.9583 | 0.3576

Cc1ccccc1O + Cc1ccccc1
308.15 K, 101 kPa
Conditions | viscosity [mPa·s]
x1 = 0.1491 | 0.6
x1 = 0.224 | 0.7051
x1 = 0.307 | 0.8217
x1 = 0.397 | 0.9904
x1 = 0.5325 | 1.332
x1 = 0.6095 | 1.604
x1 = 0.6968 | 2.034
x1 = 0.7755 | 2.544
x1 = 0.87 | 3.369

CCCCCOC(C)=O + ClC(Cl)Cl
303.15 K, 101.3 kPa
Conditions | viscosity [mPa·s]
x1 = 0.0995 | 0.5918
x1 = 0.2017 | 0.6667
x1 = 0.2998 | 0.725
x1 = 0.3984 | 0.7678
x1 = 0.5049 | 0.7991
x1 = 0.5912 | 0.8048
x1 = 0.7005 | 0.8002
x1 = 0.8153 | 0.7844
x1 = 0.8911 | 0.7722

O=C(O)CO + C[N+](C)(C)CCO.[Cl-]
100 kPa, x2 = 0.5
Conditions | viscosity [mPa·s]
293.15 K | 779.4
298.15 K | 547.9
303.15 K | 394.8
308.15 K | 290.6
313.15 K | 218.6
318.15 K | 167
323.15 K | 130.1

COC(N)=O + CCOC(N)=O
101.33 kPa, x2 = 0.5
Conditions | viscosity [mPa·s]
298.15 K | 7.716
313.15 K | 4.41

CCCCCC + CCCCCCCCCC
298.15 K, 101.33 kPa
Conditions | viscosity [mPa·s]
x1 = 0.1074 | 0.7809
x1 = 0.2074 | 0.7182
x1 = 0.3029 | 0.6515
x1 = 0.4046 | 0.5846
x1 = 0.5041 | 0.5315
x1 = 0.6061 | 0.4805
x1 = 0.7053 | 0.4337
x1 = 0.8034 | 0.3791
x1 = 0.9036 | 0.3365
